Measurements as given in US20170260178A1 (SPERO GYRASE, INC., priority 2012, published 2017).
Like-named read-outs stand apart in the source and are kept apart here.

Columns and labels:
S. aureus (ATCC 29213) = test: Bacterial assay: MIC against S. aureus; assay type: cell-based, Staphylococcus aureus; conditions: Staphylococcus aureus, ATCC29213, read-out: minimal inhibitory concentration (MIC)
S. pyogenes (ATCC 51339) = test: Bacterial assay: MIC against S. pyogenes; assay type: cell-based, Streptococcus pyogenes; conditions: Streptococcus pyogenes, ATCC51339, read-out: minimal inhibitory concentration (MIC)
[1] = test system: H. influenzae (ATCC 49247); test: Bacterial assay: MIC against H. influenzae; assay type: cell-based; conditions: Haemophilus influenzae
[2] = ATCC49247, H. influenzae ATCC 49247, read-out: minimal inhibitory concentration (MIC)

Compound	MIC (S. aureus (ATCC 29213))	MIC (S. pyogenes (ATCC 51339))	MIC ([1]; ATCC49247, read-out: minimal inhibitory concentration (MIC))	MIC [1, 2]
CCNC(=O)Nc1nc2cc(-c3cnc(C(C)O)nc3)cc(-c3cc(CP(=O)(OCC)OCC)ccn3)c2s1 (stereo not drawn) [Compound 100, 1-[7-[4-(diethoxyphosphorylmethyl)-2-pyridyl]-5-[2-(1-hydroxyethyl)pyrimidin-5-yl]-1,3-benzothiazol-2-yl]-3-ethyl-urea]	≤ 1 µg/mL	≤ 1 µg/mL	≤ 2 µg/mL	
CCNC(=O)Nc1nc2cc(-c3cnc(C(C)O)nc3)cc(-c3cc(OCC4CCCO4)ccn3)c2s1 (stereo not drawn) [Compound 104, 1-ethyl-3-[5-[2-(1-hydroxyethyl)pyrimidin-5-yl]-7-[4-(tetrahydrofuran-2-ylmethoxy)-2-pyridyl]-1,3-benzothiazol-2-yl]urea]	≤ 1 µg/mL	≤ 1 µg/mL		≤ 2 µg/mL
CCNC(=O)Nc1nc2cc(-c3cnc(C4(O)CCOCC4)nc3)cc(-c3ccccn3)c2s1 [Compound 111, 1-ethyl-3-[5-[2-(4-hydroxytetrahydropyran-4-yl)pyrimidin-5-yl]-7-(2-pyridyl)-1,3-benzothiazol-2-yl]urea]	≤ 1 µg/mL	≤ 1 µg/mL		≤ 2 µg/mL
CCNC(=O)Nc1nc2cc(-c3cnc(C4(O)COC4)nc3)cc(-c3ccccn3)c2s1 [Compound 113, 1-ethyl-3-[5-[2-(3-hydroxyoxetan-3-yl)pyrimidin-5-yl]-7-(2-pyridyl)-1,3-benzothiazol-2-yl]urea]	≤ 1 µg/mL	≤ 1 µg/mL		≤ 2 µg/mL
CCNC(=O)Nc1nc2cc(-c3cnc(C(C)(C)O)nc3)cc(-c3cc(CN4CC(C)(OC)C4)ccn3)c2s1 [Compound 114, 1-ethyl-3-[5-[2-(1-hydroxy-1-methyl-ethyl)pyrimidin-5-yl]-7-[4-[(3-methoxy-3-methyl-azetidin-1-yl)methyl]-2-pyridyl]-1,3-benzothiazol-2-yl]urea]	≤ 1 µg/mL	≤ 1 µg/mL		≤ 2 µg/mL
CCNC(=O)Nc1nc2cc(-c3cnc(C(C)O)nc3)cc(-c3ncccn3)c2s1 (stereo not drawn) [Compound 115, 1-ethyl-3-[5-[2-(1-hydroxyethyl)pyrimidin-5-yl]-7-pyrimidin-2-yl-1,3-benzothiazol-2-yl]urea]	≤ 1 µg/mL	≤ 1 µg/mL		≤ 2 µg/mL
CCNC(=O)Nc1nc2cc(-c3ccc(C(O)C(F)(F)F)nc3)cc(-c3cc(OCCN4CCOCC4)ccn3)c2s1 (stereo not drawn) [Compound 116, 1-ethyl-3-[7-[4-(2-morpholinoethoxy)-2-pyridyl]-5-[6-(2,2,2-trifluoro-1-hydroxy-ethyl)-3-pyridyl]-1,3-benzothiazol-2-yl]urea]	≤ 1 µg/mL	≤ 1 µg/mL		≤ 2 µg/mL
CCNC(=O)Nc1nc2cc(-c3cnc(C4(O)CCCC4)nc3)cc(-c3ccccn3)c2s1 [Compound 119, 1-ethyl-3-[5-[2-(1-hydroxycyclopentyl)pyrimidin-5-yl]-7-(2-pyridyl)-1,3-benzothiazol-2-yl]urea]	≤ 1 µg/mL	≤ 1 µg/mL		≤ 2 µg/mL
CCNC(=O)Nc1nc2cc(-c3cnc([C@@H](C)O)nc3)cc(-c3cc(CN4CCOCC4)ccn3)c2s1 [Compound 121, 1-ethyl-3-[5-[2-[(1R)-1-hydroxyethyl]pyrimidin-5-yl]-7-[4-(morpholinomethyl)-2-pyridyl]-1,3-benzothiazol-2-yl]urea]	≤ 1 µg/mL	≤ 1 µg/mL		≤ 2 µg/mL
CCNC(=O)Nc1nc2cc(-c3cnc([C@H](C)O)nc3)cc(-c3cc(CN4CCOCC4)ccn3)c2s1 [Compound 122, 1-ethyl-3-[5-[2-[(1S)-1-hydroxyethyl]pyrimidin-5-yl]-7-[4-(morpholinomethyl)-2-pyridyl]-1,3-benzothiazol-2-yl]urea]	≤ 1 µg/mL	≤ 1 µg/mL		≤ 2 µg/mL
CCNC(=O)Nc1nc2cc(-c3cnc(C4(O)CCOCC4)nc3)cc(-c3cc(CN4CCOCC4)ccn3)c2s1 [Compound 125, 1-ethyl-3-[5-[2-(4-hydroxytetrahydropyran-4-yl)pyrimidin-5-yl]-7-[4-(morpholinomethyl)-2-pyridyl]-1,3-benzothiazol-2-yl]urea]	≤ 1 µg/mL	≤ 1 µg/mL		≤ 2 µg/mL
CCNC(=O)Nc1nc2cc(-c3cnc(C4(O)CCSCC4)nc3)cc(-c3ccccn3)c2s1 [Compound 127, 1-ethyl-3-[5-[2-(4-hydroxytetrahydrothiopyran-4-yl)pyrimidin-5-yl]-7-(2-pyridyl)-1,3-benzothiazol-2-yl]urea]	≤ 1 µg/mL	≤ 1 µg/mL		≤ 2 µg/mL
CCNC(=O)Nc1nc2cc(-c3cnc(C4(O)COC4)nc3)cc(-c3cc(CN4CCOCC4)ccn3)c2s1 [Compound 154, 1-ethyl-3-[5-[2-(3-hydroxyoxetan-3-yl)pyrimidin-5-yl]-7-[4-(morpholinomethyl)-2-pyridyl]-1,3-benzothiazol-2-yl]urea]	≤ 1 µg/mL	≤ 1 µg/mL		≤ 2 µg/mL
CCNC(=O)Nc1nc2cc(-c3ccc(C(O)C(F)(F)F)nc3)cc(-c3cc(CN4CC(OC)C4)ccn3)c2s1 (stereo not drawn) [Compound 155, 1-ethyl-3-[7-[4-[(3-methoxyazetidin-1-yl)methyl]-2-pyridyl]-5-[6-[2,2,2-trifluoro-1-hydroxy-ethyl]-3-pyridyl]-1,3-benzothiazol-2-yl]urea]	≤ 1 µg/mL	≤ 1 µg/mL		≤ 2 µg/mL
CCNC(=O)Nc1nc2cc(-c3cnc(C(C)(O)CO)nc3)cc(-c3ccccn3)c2s1 (stereo not drawn) [Compound 157, 1-[5-[2-[1,2-dihydroxy-1-methyl-ethyl]pyrimidin-5-yl]-7-(2-pyridyl)-1,3-benzothiazol-2-yl]-3-ethyl-urea]	≤ 1 µg/mL	≤ 1 µg/mL		≤ 2 µg/mL
CCNC(=O)Nc1nc2cc(-c3cnc(C(C)O)nc3)cc(-c3ccc(C)cn3)c2s1 (stereo not drawn) [Compound 158, 1-ethyl-3-[5-[2-[1-hydroxyethyl]pyrimidin-5-yl]-7-(5-methyl-2-pyridyl)-1,3-benzothiazol-2-yl]urea]	≤ 1 µg/mL	≤ 1 µg/mL		≤ 2 µg/mL
CCNC(=O)Nc1nc2cc(-c3cnc(C(C)O)nc3)cc(-c3ccc(C(C)O)cn3)c2s1 (stereo not drawn) [Compound 168, 1-ethyl-3-[7-[5-(1-hydroxyethyl)-2-pyridyl]-5-[2-(1-hydroxyethyl)pyrimidin-5-yl]-1,3-benzothiazol-2-yl]urea]	≤ 1 µg/mL	≤ 1 µg/mL		≤ 2 µg/mL
CCNC(=O)Nc1nc2cc(-c3cnc(C4(O)CCS(=O)(=O)CC4)nc3)cc(-c3ccccn3)c2s1 [Compound 173, 1-ethyl-3-[5-[2-(4-hydroxy-1,1-dioxo-thian-4-yl)pyrimidin-5-yl]-7-(2-pyridyl)-1,3-benzothiazol-2-yl]urea]	≤ 1 µg/mL	≤ 1 µg/mL		≤ 2 µg/mL
CCNC(=O)Nc1nc2cc(-c3cnc(C(C)(C)O)nc3)cc(-c3cc(CN4CC(OCC)C4)ccn3)c2s1 [Compound 175, 1-[7-[4-[(3-ethoxyazetidin-1-yl)methyl]-2-pyridyl]-5-[2-(1-hydroxy-1-methyl-ethyl)pyrimidin-5-yl]-1,3-benzothiazol-2-yl]-3-ethyl-urea]	≤ 1 µg/mL	≤ 1 µg/mL		≤ 2 µg/mL
CCNC(=O)Nc1nc2cc(-c3cnc(C(C)O)nc3)cc(-c3nccc(OC)c3F)c2s1 (stereo not drawn) [Compound 178, 1-ethyl-3-[7-(3-fluoro-4-methoxy-2-pyridyl)-5-[2-[1-hydroxyethyl]pyrimidin-5-yl]-1,3-benzothiazol-2-yl]urea]	≤ 1 µg/mL	≤ 1 µg/mL		≤ 2 µg/mL
